Measured values reported in patent publication US20110250454A1, “PREPARATION OF NEBIVOLOL” (priority 2010, published 2011).
Where a name gives a salt, the structure may show the parent alone.

Experiments:
[1] = Specific surface area (BET); format: physicochemical; conditions: BET stated for Example 8; Hydrochloride
[2] = Particle size distribution (laser diffraction, Malvern instrument); format: physicochemical; conditions: Hydrochloride; for particle size distribution D10: 10 volume percent of particles smaller than value; for particle size distribution D50: 50 volume percent of particles smaller than value; for particle size distribution D90: 90 volume percent of particles smaller than value
Source text: The D10, D50, and D90 values are useful ways for indicating particle size distributions. D90 refers to at least 90 volume percent of the particles having a size smaller than the given value. Likewise, D10 refers to 10 volume percent of the particles having a size smaller than the given value. D50 refers to 50 volume percent of the particles having a size smaller than the given value. Methods for determining D10, D50, and D90 include laser diffraction, such as using equipment from Malvern Instruments Ltd. of Malvern, Worcestershire, United Kingdom.

[3] = natural crystalline form, not micronized; cited from earlier work
[4] = natural crystalline form, not micronized; cited from earlier work; remark: listed apart in the source

SMILES	Specific surface area [1]	particle size distribution D10 [2]	particle size distribution D50 [2]	particle size distribution D90 [2]	bioavailability [3]	dissolution rate [4]
OC(CNCC(O)C1CCc2cc(F)ccc2O1)C1CCc2cc(F)ccc2O1 (stereo not shown) [Example 8, Nebivolol Hydrochloride]	1.2580 m^2/g	3.94 μm	19.1 μm	48.4 μm		
OC(CNCC(O)C1CCc2cc(F)ccc2O1)C1CCc2cc(F)ccc2O1 (stereo not shown) [Example 52, Nebivolol Hydrochloride]		1.753 μm	4.571 μm	15.180 μm		
OC(CNCC(O)C1CCc2cc(F)ccc2O1)C1CCc2cc(F)ccc2O1 (stereo not shown) [Example 53, Nebivolol Hydrochloride]		1.87 μm	4.46 μm	11.72 μm		
OC(CNCC(O)C1CCc2cc(F)ccc2O1)C1CCc2cc(F)ccc2O1 (stereo not shown) [Example 54, Nebivolol Hydrochloride]		1.314 μm	3.363 μm	7.80 μm		
OC(CNCC(O)C1CCc2cc(F)ccc2O1)C1CCc2cc(F)ccc2O1 (stereo not shown) [Example 55, Nebivolol Hydrochloride]		2.37 μm	6.29 μm	25.76 μm		
OC(CNCC(O)C1CCc2cc(F)ccc2O1)C1CCc2cc(F)ccc2O1 (stereo not shown) [Example 56, Nebivolol Hydrochloride]	3.68 m^2/g	1.23 μm	3.17 μm	10.75 μm		
OC(CNCC(O)C1CCc2cc(F)ccc2O1)C1CCc2cc(F)ccc2O1 (stereo not shown) [Example 60, Nebivolol Hydrochloride]		1.43 μm	3.52 μm	9.35 μm		
OC(CNCC(O)C1CCc2cc(F)ccc2O1)C1CCc2cc(F)ccc2O1 (stereo not drawn) [nebivolol hydrochloride, (1RS,1′RS)-1,1′-[(2RS,2′SR)-bis(6-fluoro-3,4-dihydro-2H-1-benzopyran-2-yl)]-2,2′-iminodiethanol]					poor	poor
